Assays:
[1] = test system: control sera (pooled serum of ten healthy LUMC hospital workers; commercial negative donor pooled serum from the Dutch bloodbank); format: binding, human; set-up: Binding of Control serum LUMC to linear peptides / Binding of Control serum Blood-bank to linear peptides / Binding of Control serum LUMC to looped peptides / Binding of Control Serum Blood-Bank to Looped peptides / Binding of Control serum LUMC to linear peptides of the protein M of SARS-CoV Urbani / Binding of Control serum Blood-bank to linear peptides of the protein M of SARS-CoV Urbani / Binding of Control serum LUMC to looped peptides of the protein M of SARS-CoV Urbani / Binding of Control Serum Blood-Bank to Looped peptides of the protein M of SARS-CoV Urbani: unit not given here
[2] = test system: antibodies in sera from SARS patients (sera 1a, 1b, 2, 6, 37, 62, London, SARS-yellow, SARS-green); format: binding, human; set-up: Binding of serum 6 to linear peptides of protein X1 of SARS-CoV Urbani / Binding of serum 37 to linear peptides of protein X1 of SARS-CoV Urbani / Binding of serum 6 to looped/cyclic peptide (PEPSCAN-ELISA) / Binding of serum 37 to looped/cyclic peptide (PEPSCAN-ELISA) / Binding of serum 37 to looped/cyclic peptides of protein X1 of SARS-CoV Urbani / Binding of serum 6 to linear peptides of protein X2 / Binding of serum 37 to linear peptides of protein X2 / Binding of serum 37 to looped/cyclic peptides of protein X2 of SARS-CoV Urbani / Binding of serum 6 to linear peptides of protein M of SARS-CoV Urbani / Binding of serum 37 to linear peptides of protein M of SARS-CoV Urbani / Binding of serum 6 to looped/cyclic peptides of protein M of SARS-CoV Urbani / Binding of serum 37 to looped/cyclic peptides of protein M of SARS-CoV Urbani / Binding of serum 6 to linear peptides of protein X3 of SARS-CoV Urbani / Binding of serum 37 to linear peptides of protein X3 of SARS-CoV Urbani / Binding of serum 37 to looped/cyclic peptides of protein X3 of SARS-CoV Urbani / Binding of serum 6 to linear peptides of protein X4 of SARS-CoV Urbani / Binding of serum 37 to linear peptides of protein X4 of SARS-CoV Urbani / Binding of serum 37 to looped/cyclic peptides of protein X4 of SARS-CoV Urbani / Binding of serum 6 to linear peptides of protein X5 of SARS-CoV Urbani / Binding of serum 37 to linear peptides of protein X5 of SARS-CoV Urbani / Binding of serum 37 to looped/cyclic peptides of protein X5 of SARS-CoV Urbani / Binding of serum 6 to linear peptides of protein N of SARS-CoV Urbani / Binding of serum 37 to linear peptides of protein N of SARS-CoV Urbani / Binding of serum 6 to linear peptide (PEPSCAN-ELISA) / Binding of serum 1a to looped/cyclic peptides of protein N of SARS-CoV Urbani / Binding of serum 1b to looped/cyclic peptides of protein N of SARS-CoV Urbani / Binding of serum 2 to looped/cyclic peptides of protein N of SARS-CoV Urbani / Binding of serum 6 to looped/cyclic peptides of protein N of SARS-CoV Urbani / Binding of serum 37 to looped/cyclic peptides of protein N of SARS-CoV Urbani / Binding of serum 62 to looped/cyclic peptides of protein N of SARS-CoV Urbani / Binding of serum London to looped/cyclic peptides of protein N of SARS-CoV Urbani / Binding of serum SARS-green to looped/cyclic peptides of protein N of SARS-CoV Urbani: unit not given here
[3] = test system: rabbit serum obtained by immunizing a rabbit with the SARS-CoV strain Frankfurt 1; format: binding; set-up: Binding of a rabbit serum to linear peptides / Binding of a rabbit serum to looped peptides / Rabbit serum linear peptides / Rabbit serum looped peptides / Binding of a rabbit serum to linear peptides of protein N of SARS-CoV Urbani (Rabbit serum linear peptides) / Binding of a rabbit serum to looped/cyclic peptides of protein N of SARS-CoV Urbani (Rabbit serum looped peptides): unit not given here

Q: Which results are given for FQFICNLLLLFVTIY?
A: Binding of Control Serum Blood-Bank to Looped peptides [1]: 0.4; Binding of Control serum Blood-bank to linear peptides [1]: 0.5; Binding of Control serum LUMC to linear peptides [1]: 0.5; Binding of Control serum LUMC to looped peptides [1]: 0.3; Binding of serum 1a to linear peptides of protein X1 of SARS-CoV Urbani [2]: 0.6; Binding of serum 1a to looped/cyclic peptide (PEPSCAN-ELISA) [2]: 0.2; Binding of serum 1b to linear peptides of protein X1 of SARS-CoV Urbani [2]: 0.5; Binding of serum 1b to looped/cyclic peptide (PEPSCAN-ELISA) [2]: 0.0; Binding of serum 2 to linear peptides of protein X1 of SARS-CoV Urbani [2]: 0.5; Binding of serum 2 to looped/cyclic peptide (PEPSCAN-ELISA) [2]: 0.0; Binding of serum 6 to linear peptides of protein X1 of SARS-CoV Urbani [2]: 0.3; Binding of serum 6 to looped/cyclic peptide (PEPSCAN-ELISA) [2]: 0.2; Binding of serum 37 to linear peptides of protein X1 of SARS-CoV Urbani [2]: 0.5; Binding of serum 37 to looped/cyclic peptide (PEPSCAN-ELISA) [2]: 0.0; Binding of serum 62 to linear peptides of protein X1 of SARS-CoV Urbani [2]: 0.5; Binding of serum 62 to looped/cyclic peptide (PEPSCAN-ELISA) [2]: 0.2; Binding of serum London to linear peptides of protein X1 of SARS-CoV Urbani [2]: 0.2; Binding of serum London to looped/cyclic peptide (PEPSCAN-ELISA) [2]: 0.1; Binding of serum SARS-green to linear peptides of protein X1 of SARS-CoV Urbani [2]: 0.1; Binding of serum SARS-green to looped/cyclic peptide (PEPSCAN-ELISA) [2]: 0.4; Binding of serum SARS-yellow to linear peptides of protein X1 of SARS-CoV Urbani [2]: 0.5; Binding of serum SARS-yellow to looped/cyclic peptide (PEPSCAN-ELISA) [2]: 0.0; Binding of a rabbit serum to linear peptides [3]: 0.9; Binding of a rabbit serum to looped peptides [3]: 0.0

Q: For TIVTRPLMESELVIG, which “Binding of Control Serum Blood-Bank to Looped peptides of the protein M of SARS-CoV Urbani” value [1] is on record?
A: 0.9

Q: What about the “Binding of Control serum Blood-bank to linear peptides of the protein M of SARS-CoV Urbani” value [1] of the same sequence?
A: 0.8

Q: What about the “Binding of Control serum LUMC to linear peptides of the protein M of SARS-CoV Urbani” value [1] of the same sequence?
A: 0.5

Q: And the “Binding of Control serum LUMC to looped peptides of the protein M of SARS-CoV Urbani” value [1]?
A: 1.0

Q: And the “Binding of serum 1a to linear peptides of protein M of SARS-CoV Urbani” value [2]?
A: 0.8

Q: And the “Binding of serum 1b to linear peptides of protein M of SARS-CoV Urbani” value [2]?
A: 0.6

Q: What about the “Binding of serum 2 to linear peptides of protein M of SARS-CoV Urbani” value [2] of the same sequence?
A: 0.6

Q: What about the “Binding of serum 6 to linear peptides of protein M of SARS-CoV Urbani” value [2] of the same sequence?
A: 0.4

Q: What about the “Binding of serum 37 to linear peptides of protein M of SARS-CoV Urbani” value [2] of the same sequence?
A: 0.7

Q: And the “Binding of serum 62 to linear peptides of protein M of SARS-CoV Urbani” value [2]?
A: 0.9

Q: What about the “Binding of serum London to linear peptides of protein M of SARS-CoV Urbani” value [2] of the same sequence?
A: 0.3

Q: And the “Binding of serum SARS-green to linear peptides of protein M of SARS-CoV Urbani” value [2]?
A: 0.3

Q: What about the “Binding of serum SARS-yellow to linear peptides of protein M of SARS-CoV Urbani” value [2] of the same sequence?
A: 0.1

Q: What about the “Recognition of the peptide by sera of SARS-CoV infected individuals, and form (linear, looped/cyclic) in which it is recognized” value [2] of the same sequence?
A: recognized in looped/cyclic form

Q: What about the “Rabbit serum linear peptides” value [3] of the same sequence?
A: 0.3

Q: And the “Rabbit serum looped peptides” value [3]?
A: 0.3

Q: For LVRYNTRGNTYSTAW, which “Binding of Control Serum Blood-Bank to Looped peptides” value [1] is on record?
A: 0.3

Q: And the “Binding of Control serum Blood-bank to linear peptides” value [1]?
A: 0.8

Q: And the “Binding of Control serum LUMC to linear peptides” value [1]?
A: 0.5

Q: And the “Binding of Control serum LUMC to looped peptides” value [1]?
A: 0.5

Q: What about the “Binding of serum 1a to linear peptides of protein X5 of SARS-CoV Urbani” value [2] of the same sequence?
A: 0.7

Q: What about the “Binding of serum 1a to looped/cyclic peptides of protein X5 of SARS-CoV Urbani” value [2] of the same sequence?
A: 0.4

Q: What about the “Binding of serum 1b to linear peptides of protein X5 of SARS-CoV Urbani” value [2] of the same sequence?
A: 0.4

Q: What about the “Binding of serum 1b to looped/cyclic peptides of protein X5 of SARS-CoV Urbani” value [2] of the same sequence?
A: 0.2

Q: What about the “Binding of serum 2 to linear peptides of protein X5 of SARS-CoV Urbani” value [2] of the same sequence?
A: 0.5

Q: What about the “Binding of serum 2 to looped/cyclic peptides of protein X5 of SARS-CoV Urbani” value [2] of the same sequence?
A: 0.4

Q: And the “Binding of serum 6 to linear peptides of protein X5 of SARS-CoV Urbani” value [2]?
A: 0.4

Q: And the “Binding of serum 6 to looped/cyclic peptides of protein X5 of SARS-CoV Urbani” value [2]?
A: 0.3

Q: And the “Binding of serum 37 to linear peptides of protein X5 of SARS-CoV Urbani” value [2]?
A: 0.6

Q: What about the “Binding of serum 37 to looped/cyclic peptides of protein X5 of SARS-CoV Urbani” value [2] of the same sequence?
A: 0.5

Q: What about the “Binding of serum 62 to linear peptides of protein X5 of SARS-CoV Urbani” value [2] of the same sequence?
A: 0.7

Q: And the “Binding of serum 62 to looped/cyclic peptides of protein X5 of SARS-CoV Urbani” value [2]?
A: 0.6

Q: What about the “Binding of serum London to linear peptides of protein X5 of SARS-CoV Urbani” value [2] of the same sequence?
A: 0.6

Q: And the “Binding of serum London to looped/cyclic peptides of protein X5 of SARS-CoV Urbani” value [2]?
A: 0.2

Q: And the “Binding of serum SARS-green to linear peptides of protein X5 of SARS-CoV Urbani” value [2]?
A: 0.4

Q: What about the “Binding of serum SARS-green to looped/cyclic peptides of protein X5 of SARS-CoV Urbani” value [2] of the same sequence?
A: 0.3

Q: And the “Binding of serum SARS-yellow to linear peptides of protein X5 of SARS-CoV Urbani” value [2]?
A: 0.3

Q: What about the “Binding of serum SARS-yellow to looped/cyclic peptides of protein X5 of SARS-CoV Urbani” value [2] of the same sequence?
A: 0.5

Q: What about the “Rabbit serum linear peptides” value [3] of the same sequence?
A: 0.7

Q: And the “Rabbit serum looped peptides” value [3]?
A: 0.3

From patent US20070128217A1 (priority 2003, published 2007)
